Laboratory results from patent US8629132B2, “Kinase inhibitors” (Genosco, priority 2009, dated 2014).

Key:
HEL cells = assay: Cell viability assay: JAK2 inhibition; assay type: cell-based, human
Experimental: Compounds of the invention are tested for their effects on JAK2 inhibition in human erythroleukemic cell line (HEL) to illustrate potential efficacy at the cellular level. The Janus-associated kinase (JAK) family, comprised of four different protein tyrosine kinases JAK1, JAK2, JAK3, and TYK2, plays an important role in cellular survival, proliferation, and differentiation. V617F, a unique mutation in the JAK2 gene (a valine-to-phenylalanine substitution) results in constitutive kinase activity and promotes deregulated hematopoiesis. JAK2 V617F is frequently detected in myeloproliferative disorders (MPDs), a group of clonal hematopoietic stem cell disorders that include polycythemia vera (PV), essential thrombocythemia (ET), and idiopathic myelofibrosis (IMF), all of which have the potential to transform to acute myeloid leukemia. JAK2 V617F is constitutively phosphorylated and able to activate downstream signaling in the absence of cytokine stimulation.
Compounds of the present invention were tested for their effects on viability of HEL cells. For cell viability assay, HEL cells expressing human JAK2 V617F were obtained from the American Type Culture Collection (ATCC, Manassas, Va.). This cell line was maintained with Roswell Park Memorial Institute (RPMI) medium (HyClone™) containing 10 bovine calf serum (BCS; Hyclone™) supplemented iron. The HEL cells were seeded at 2×10^4 cells in 96 well culture plates, and serially diluted compound was then added. After a 72-hour incubation period at 37° C., viability of cells was measured using the ATPLite 1 step assay (Perkin-Elmer™) that is based on the quantification of ATP from viable cells. CellTiter Aqueous assay (Promega™) was also performed in parallel as an orthogonal assay. IC50 values were calculated using nonlinear regression and defined as the concentration needed for a 50 reduction in luminescence or absorbance treated versus untreated control cells (Prism™ Software).

JAK2 = JAK2 (Homo sapiens, UniProt O60674); assay: Kinase inhibition assay: JAK2; assay type: biochemical; parameters: truncated human FAK, RET, FLT3, JAK2, and LRRK2; purchased Carna Biosciences
Sequence of JAK2 (O60674 826-1132 limits assumed): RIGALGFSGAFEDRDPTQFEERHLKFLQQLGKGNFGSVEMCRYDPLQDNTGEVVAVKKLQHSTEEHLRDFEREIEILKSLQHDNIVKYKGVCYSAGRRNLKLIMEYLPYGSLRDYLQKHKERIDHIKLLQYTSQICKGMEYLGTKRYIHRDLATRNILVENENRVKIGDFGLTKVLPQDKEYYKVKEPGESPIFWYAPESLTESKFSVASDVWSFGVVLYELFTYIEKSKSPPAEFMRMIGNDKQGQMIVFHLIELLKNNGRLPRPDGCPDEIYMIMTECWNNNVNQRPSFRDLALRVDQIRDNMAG

[1] = tested on: TNF-α release in THP-1 cells; assay: SYK dependent TNF-α release assay (IgG stimulation); assay type: cell-based, human
Experimental: Compounds of the present invention are tested for their effects on TNF-α release in human acute monocytic leukimia cell line (THP-1) to illustrate potential efficacy at the cellular level. TNF-α is a cytokine involved in systemic inflammation and is a member of a group of cytokines that stimulate the acute phase reaction. The primary role of TNF-α is in the regulation of immune cells. TNF-α is known to induce apoptotic cell death and inflammation and to inhibit early tumorigenesis and viral replication. Dysregulation and, in particular, overproduction of TNF-α have been implicated in a variety of human diseases, autoimmune disease, inflammation, arthritis and cancer.
Production or release of TNF-α is controlled by type of stimulus to which the cell responds. SYK activity is involved in mediating TNF-α production. When stimulated by IgG, cells increase TNF-α production in a SYK dependent manner (i.e., the SYK dependent pathway). However, when stimulated by lipopolysaccharide (LPS), they produce TNF-α in a SYK independent manner.
Compounds of the invention were tested for their TNF-α release effect on THP-1 cells. For SYK dependent TNF-α release assay (i.e., via IgG stimulation), THP-1 cells derived from human monocytic cells were obtained from the American Type Culture Collection (ATCC, Manassas, Va.). This cell line was maintained with an Roswell Park Memorial Institute (RPMI) medium (GIBCO™) containing 10 fetal bovine serum (FBS; GIBCO™) and 0.05 mM 2-mercaptoethanol. The THP-1 cells were seeded at 1×10^5 cells/100 μL/well into human IgG (10 μg/well, INVITROGENT™)-coated 96 well culture plate, and serially diluted compound was then added. After an 18-hour incubation period at 37° C., supernatants were collected for the determination of the TNF-α level by enzyme-linked immunosorbent assay (ELISA), and the remaining cells were subjected to an MTT (yellow tetrazolium salt) assay to determine the cytotoxic effects of compound.

| Compound | inhibition level compared with Sorafenib (HEL cells; HEL) | IC50 (HEL cells; Homo sapiens, 72-hour incubation, HEL cells expressing JAK2 V617F, read-out: Cell Viability: JAK2 kinase Inhibition HEL (IC50 nM)) [nM] | IC50 (JAK2) [nM] | inhibition at 0.3 µM ([1]; Homo sapiens, THP-1 cells, IgG stimulation, 0.3 μM, 18-hour incubation) [%] | inhibition at 1 µM ([1]; Homo sapiens, THP-1 cells, IgG stimulation, 1 μM, 18-hour incubation) [%] | percentage inhibition of TNF-α release compared with R406 ([1]; IgG stimulated release, 0.3 μM) |
| --- | --- | --- | --- | --- | --- | --- |
| COc1cc(Nc2ncc(C)c(-n3cc(C)c(CO)c3)n2)cc(OC)c1OC [Compound 21, (4-methyl-1-(5-methyl-2-(3,4,5-trimethoxyphenylamino)pyrimidin-4-yl)-1H-pyrrol-3-yl)methanol] | greater than those exhibited by Sorafenib | 144 | 7.7 |  |  |  |
| Cc1cc(C)cc(Nc2ncc(F)c(-n3cc(C)c(CN4CC[C@@H](O)C4)c3)n2)c1 [Compound 82, (R)-1-((1-(2-(3,5-dimethylphenyl-amino)-5-fluoropyrimidin-4-yl)-4-methyl-1H-pyrrol-3-yl)methyl) pyrrolidin-3-ol] |  |  |  | 49.2 | 91.4 | greater that those exhibited by R406 |
